The text below walks through data of patent US20260335341A1, “METHODS FOR TREATING PAEDIATRIC NEUROLOGICAL DISORDERS” (Neurotech International Limited, priority 2022, published 2026).

Common to all, as to type: cell-based
The subject of one assay is TNF-a. Put plainly: TNF-a, prednisone combination (Example 8). Particulars: PDN 5 uM; NTI164 7.5 ug/ml; combination PDN 5 uM + NTI164 7.5 ug/ml; activated control 45. An excerpt: (§1) Student's t-test was used for statistical analysis.
Another assay concerns IL-6. Put plainly: IL-6, prednisone combination (Example 8). The following applies: PDN 5 uM; NTI164 7.5 ug/ml; combination PDN 5 uM + NTI164 7.5 ug/ml; activated control 366.33.
Description: as §1

For the next assay, the system named is IL-1a. Put plainly: IL-1a, prednisone combination (Example 8). The following applies: PDN 5 uM; NTI164 7.5 ug/ml; combination PDN 5 uM + NTI164 7.5 ug/ml; activated control 154.83.
Description: as §1

The next assay deals with GM-CSF. Kind of assay: GM-CSF, prednisone combination (Example 8). The following applies: PDN 5 uM; NTI164 7.5 ug/ml; combination PDN 5 uM + NTI164 7.5 ug/ml; activated control 768.13.
Description: as §1

Consider `C[C@]12C=CC(=O)C=C1CC[C@@H]1[C@@H]2C(=O)C[C@@]2(C)[C@H]1CC[C@]2(O)C(=O)CO` [PDN, Prednisone], for which the TNF-a in the assay with TNF-a amounted to 30.17. Moreover, in the assay with IL-6, the IL-6 is 228.50. Further, the IL-1a with IL-1a is 144.5. The GM-CSF with GM-CSF is on record as 611.97.
